From PubChem BioAssay (NCI)
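Grown in 96-well plates, cells were treated for 48 hours with each compound at five concentrations. Insufficient inhibition: endpoint recorded as highest concentration tested. TGI denotes the concentration required for complete inhibition of growth.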

Key:
Test in all cases: inhibition of tumour cell growth, NCI panel, 48 h
NCI-H226 lung = tested on: NCI-H226 lung
OVCAR-4 ovarian = tested on: OVCAR-4 ovarian
A549 NSCLC = tested on: A549 NSCLC
786-0 renal = tested on: 786-0 renal
SK-MEL-5 melanoma = tested on: SK-MEL-5 melanoma
DU-145 prostate = tested on: DU-145 prostate
IGROV1 ovarian = tested on: IGROV1 ovarian
MDA-N = tested on: MDA-N
HOP-92 NSCLC = tested on: HOP-92 NSCLC
NCI-H460 lung = tested on: NCI-H460 lung
CCRF-CEM leukemia = tested on: CCRF-CEM leukemia
OVCAR-5 ovarian = tested on: OVCAR-5 ovarian
HS 578T breast = tested on: HS 578T breast
NCI-H23 lung = tested on: NCI-H23 lung
SN12C renal = tested on: SN12C renal
CAKI-1 renal = tested on: CAKI-1 renal
TK-10 renal = tested on: TK-10 renal
NCI-H522 lung = tested on: NCI-H522 lung
LOX IMVI melanoma = tested on: LOX IMVI melanoma
HOP-62 NSCLC = tested on: HOP-62 NSCLC
MOLT-4 leukemia = tested on: MOLT-4 leukemia
SK-MEL-28 melanoma = tested on: SK-MEL-28 melanoma
HT29 colon = tested on: HT29 colon
OVCAR-3 ovarian = tested on: OVCAR-3 ovarian
M14 melanoma = tested on: M14 melanoma
KM12 colon = tested on: KM12 colon
T-47D breast = tested on: T-47D breast
SW-620 colon = tested on: SW-620 colon
MDA-MB-231 breast = tested on: MDA-MB-231 breast
MALME-3M melanoma = tested on: MALME-3M melanoma
OVCAR-8 ovarian = tested on: OVCAR-8 ovarian
PC-3 prostate = tested on: PC-3 prostate
UO-31 renal = tested on: UO-31 renal
SR leukemia = tested on: SR leukemia
ACHN renal = tested on: ACHN renal
SK-MEL-2 melanoma = tested on: SK-MEL-2 melanoma
MDA-MB-435 = tested on: MDA-MB-435
NCI/ADR-RES ovarian = tested on: NCI/ADR-RES ovarian
UACC-257 melanoma = tested on: UACC-257 melanoma
K-562 leukemia = tested on: K-562 leukemia
HL-60(TB) leukemia = tested on: HL-60(TB) leukemia
HCT-116 colon = tested on: HCT-116 colon
EKVX NSCLC = tested on: EKVX NSCLC
HCT-15 colon = tested on: HCT-15 colon
COLO 205 colon = tested on: COLO 205 colon
HCC-2998 colon = tested on: HCC-2998 colon

OCCN(CCO)c1nc(N2CCCCC2)c2nc(N(CCO)CCO)nc(N3CCCCC3)c2n1
TGI (NCI-H226 lung): > 100 µM
TGI (OVCAR-4 ovarian): > 100 µM
TGI (A549 NSCLC): > 100 µM
TGI (786-0 renal): > 100 µM
TGI (SK-MEL-5 melanoma): 41.8 µM
TGI (DU-145 prostate): > 100 µM
TGI (IGROV1 ovarian): > 100 µM
TGI (MDA-N): > 100 µM
TGI (HOP-92 NSCLC): 36.4 µM
TGI (NCI-H460 lung): > 100 µM
TGI (CCRF-CEM leukemia): > 100 µM
TGI (OVCAR-5 ovarian): > 100 µM
TGI (HS 578T breast): 79.6 µM
TGI (NCI-H23 lung): > 100 µM
TGI (SN12C renal): > 100 µM
TGI (CAKI-1 renal): > 100 µM
TGI (TK-10 renal): 64.6 µM
TGI (NCI-H522 lung): 39.6 µM
TGI (LOX IMVI melanoma): > 100 µM
TGI (HOP-62 NSCLC): > 100 µM
TGI (MOLT-4 leukemia): 56.5 µM
TGI (SK-MEL-28 melanoma): > 100 µM
TGI (HT29 colon): 40 µM
TGI (OVCAR-3 ovarian): 32.6 µM
TGI (M14 melanoma): > 100 µM
TGI (KM12 colon): > 100 µM
TGI (T-47D breast): > 100 µM
TGI (SW-620 colon): > 100 µM
TGI (MDA-MB-231 breast): > 100 µM
TGI (MALME-3M melanoma): 46 µM
TGI (OVCAR-8 ovarian): > 100 µM
TGI (PC-3 prostate): > 100 µM
TGI (UO-31 renal): > 100 µM
TGI (SR leukemia): 22.2 µM
TGI (ACHN renal): > 100 µM
TGI (SK-MEL-2 melanoma): > 100 µM
TGI (MDA-MB-435): > 100 µM
TGI (NCI/ADR-RES ovarian): > 100 µM
TGI (UACC-257 melanoma): > 100 µM
TGI (K-562 leukemia): > 100 µM
TGI (HL-60(TB) leukemia): 36.5 µM
TGI (HCT-116 colon): > 100 µM
TGI (EKVX NSCLC): > 100 µM
TGI (HCT-15 colon): > 100 µM
TGI (COLO 205 colon): > 100 µM
TGI (HCC-2998 colon): 36.4 µM
